{
  "source": "patent US9540418B2",
  "about": "“Polypeptide specifically binding to rare earth nanoparticles and use thereof” (University of Science and Technology of China, priority 2012, dated 2017)",
  "key": {"LC3 II in HeLa cells": {"tested_on": "LC3 II in HeLa cells", "assay": "Western blotting of LC3 in HeLa cells", "format": "cell-based", "description": "Western blotting is performed as follows: After an incubation of 24 h, the cells are collected and lysed with lysis buffer (purchased from Beyotime Biotechnology, China). The lysate is boiled in boiling water for 10 min, subjected to 15% SDS-PAGE, and then transferred to nylon membrane (purchased from Amersham Inc.) by a wet transfer. In the Western blotting, Anti-LC3 (Light Chain 3 Protein Antibody, purchased from Novus Inc., Catalog #: NB 100-2220) is used as primary antibody; GAPDH (purchased from Millipore Inc.) is used as internal reference; and Horseradish peroxidase (HRP) conjugated goat anti-rabbit IgG (H+L) (Goat Anti-Rabbit IgG (H+L), HRP Conjugate) (purchased from Promega Inc.) is used as secondary antibody.\nHeLa cells were inoculated into a 24-well cell culturing plate at a density of about 3-5×10^4 cells/well, and cultured overnight for further use. At first, the medium was replaced with fresh DMEM medium, and then 100 μg/mL UCN or UCN+RE-1 was added. An equal volume of PBS was used as blank. A mixture of 100 μg/mL UCN and 10 mg/mL PEG was used as negative control. 100 mM trehalose was used as positive control. Then, western blotting assay was performed.\nHeLa cells were inoculated into a 24-well cell culturing plate at a density of about 3-5×10^4 cells/well, and cultured overnight for further use. At first, the medium was replaced with fresh DMEM medium, and then 100 μg/mL UCP or UCP+RE-1 was added. An equal volume of PBS was used as blank. A mixture of 100 μg/mL UCP+AP-1 and a mixture of 400 μg/mL TiO2+AP-1 were used as negative control. 400 μg/mL TiO2 was used as positive control. Then, western blotting assay was performed."}, "[1]": {"assay": "Sedimentation / suspension time-dynamics curve of UCP (UV 500 nm)", "format": "physicochemical", "conditions": "standing for 120 min; UCP with or without RE-1 coating", "description": "3 mg of UCN was mixed with 1.5 mg of RE-1 or its analogues RE-2, RE-3, or RE-5 as well as PEG, and the binding between them was performed according to a binding method. The excess and unbound RE-1 was washed off. The resultant precipitate was resuspended in 3 mL water, sonicated for 1 min, and then placed into a UV detection cell (X72053, Alpha Laboratories Ltd, UK). Observation was made using a UV spectrophotometer (DU-640, Beckman, USA) at an absorption wavelength of 500 nm for 120 min to obtain a time-dynamics curve.\nThe process described above was repeated except that 3 mg UCP and 500 μg RE-1 or its analogues RE-2, RE-3, RE-4, RE-5, RE-6, RE-7, RE-8, RE-9, or RE-10 and AP-1 were used. A time-dynamics curve was obtained."}, "[2]": {"assay": "Competitive inhibition of REOB-1 phage binding to Nd2O3 by polypeptides (IC50)", "conditions": "100 μg Nd2O3, REOB-1 phages at a titer of 108, 2 hr incubation; read-out: IC50 (μM)* of polypeptides competitively inhibiting the binding of REOB-1 phages to Nd2O3 nanoparticles", "description": "100 μg Nd2O3 was mixed with the polypeptides, RE-1, AP-1, RE-2, RE-3, RE-4, RE-5, RE-6, RE-7, RE-8, RE-9, RE-10, etc., respectively. To the mixture, REOB-1 phages at a titer of 108 were added. After 2 hr of incubation, the number of REOB-1 phages binding to Nd2O3 was measured. IC50 value indicated the relative activity of various polypeptides competitively inhibiting the binding of REOB-1 phages to Nd2O3 nanoparticles. The polypeptide RE-1 and its analogues had different binding ability to Nd2O3."}, "[3]": {"assay": "Observation of binding form with UCN by TEM and SEM", "conditions": "TEM / SEM after washing off unbound", "description": "The binding forms of RE-1 short peptide and REOB-1 phage with UCN were observed using a transmission electron microscope. The excess unbound polypeptides and phages were washed off from the complex of RE-1 and UCN. The complex was stained with uranium acetate (pH 6.7), and placed on a copper mesh coated with carbon film. A transmission electron microscope TEM (200 kV) (JEM-2100F, JEOL, Japan) was used for observation and imaging (FIG. 5A and FIG. 5B).\nThe binding form of RE-1 peptide to UCN was observed under a scanning electron microscope. The excess unbound polypeptides were washed off from the complex of RE-1 and UCN. The complex was placed on a copper mesh. A scanning electron microscope SEM (15 kV) (JEOL JSM-6700F, JEOL, Japan) was used for observation and imaging (FIG. 5C)."}, "[4]": {"assay": "Inhibition of the binding of REOB-1 to Nd2O3 by RE-1 short peptide at various concentrations", "description": "RE-1 short peptides at various concentrations (0 μg/mL, 1 μg/mL, 10 μg/mL, 50 μg/mL, 100 μg/mL, and 500 μg/mL) were incubated with 100 μL Nd2O3 (1 mg/mL) comprising REOB-1 phages at a titer of 10^8 at 37° C. for 2 hr. The resulting precipitate was washed 10 times. The phages binding to Nd2O3 were recovered. 5000 μg/mL of AP-1 short peptide was treated according to the same procedure as described above, as a control."}, "[5]": {"assay": "Binding of FITC-RE-1 to UCN (time, concentration, pH, salt, temperature)", "conditions": "50 μg FITC-RE-1, 100 μg UCN", "description": "50 μg of FITC-RE-1 was incubated with 100 μg of UCN for different time periods (2 min, 10 min, 30 min, 120 min, and 720 min). Then, the amount of FITC-RE-1 fluorescent peptide binding to UCN was measured by using fluorescence spectrophotometer.\n100 μg of UCN was incubated with FITC-RE-1 at various concentrations (5 μg, 10 μg, 25 μg, 50 μg, and 100 μg) for 1 hr. The excess and unbound peptides were washed off. The amount of FITC-RE-1 fluorescent peptide binding to UCN was measured by using fluorescence spectrophotometer.\n(§1) 50 μg of FITC-RE-1 was incubated with 100 μg of UCN dissolved at different pH values (pH 3, 5, 7, and 10) for 1 hr. The excess and unbound peptides were washed off. The amount of FITC-RE-1 fluorescent peptide binding to UCN was measured by using fluorescence spectrophotometer.\nas §1, with “salt ion concentrations (0 M, 0.15 M, 0.3 M,” for “pH values (pH 3, 5, 7,”, “0.5 M NaCl)” for “10)”\n50 μg of FITC-RE-1 was incubated with 100 μg of UCN dissolved in water at different temperatures (25° C., 37° C., 55° C., and 80° C.) for 1 hr. […] The amount of FITC-RE-1 fluorescent peptide binding to UCN was measured by using fluorescence spectrophotometer."}},
  "data": [
    {"sequence": "ACTARSPWICG [RE-1, RE-0 with terminal amino acids A and G added]", "values": [
      {"measurement": "effect of RE-1 coating of UCN and UCP on LC3 II", "setting": "LC3 II in HeLa cells; 100 μg/mL UCN+RE-1 or UCP+RE-1", "result": "significantly prevented the increase of LC3 II"},
      {"measurement": "inhibition of cell autophagy induced by TiO2", "setting": "LC3 II in HeLa cells; 400 μg/mL TiO2", "result": "could not inhibit"},
      {"measurement": "suspension / sedimentation of UCP in water", "setting": "[1]", "result": "still in suspension"},
      {"measurement": "IC50", "setting": "[2]", "result": "3.01 ± 0.14", "unit": "µM"},
      {"measurement": "binding form on the surface of UCN", "setting": "[3]", "result": "form a stable peptide coating on the surface of UCN"},
      {"measurement": "dependence of inhibition of REOB-1 binding to Nd2O3 on RE-1 concentration", "setting": "[4]; 0-500 μg/mL RE-1", "result": "concentration-dependent"},
      {"measurement": "inhibition of the binding of REOB-1 to Nd2O3", "setting": "[4]; RE-1 concentration greater than 10 μg/mL, REOB-1 titer 10^8, 37° C., 2 hr", "result": "nearly completely inhibited"},
      {"measurement": "binding to UCN at 2 min", "setting": "[5]; 2 min", "result": 50, "unit": "%"},
      {"measurement": "binding to UCN at 10 min", "setting": "[5]; 10 min", "result": "almost binding saturation"}
    ]}
  ]
}
